Experiments:
mice = test: Spontaneous locomotor activity (Supermex); format: in vivo; settings: measured for 30 minutes, 1 or 3 hours after administration, compared to control group
Procedure: Five- to six-week-old male ICR-SPF mice (Japan SLC, Inc.) were divided into 5 groups of 8 mice each: a control group (with administration of distilled water (trade name: Otsuka Distilled Water) manufactured by Otsuka Pharmaceutical Factory, Inc.), two 10 mg/kg compound A administration groups, and two 30 mg/kg compound A administration groups, as shown in Table 2 below. Compound A or distilled water at a dose of 10 mL/kg was orally administered to the mice. One or three hours after the administration of compound A or distilled water, the mice were transferred to a measurement cage, and spontaneous locomotor activity was measured for 30 minutes using Supermex (registered trademark) (Muromachi Kikai Co., Ltd.).

cancer pain model rats = test: Pain threshold in cancer pain model rats (MRMT-1 bone metastasis model, Dynamic Plantar Aesthesiometer); format: in vivo; settings: for cancer pain threshold: single dose, day 11 after MRMT-1 transplantation, plantar surface of right hind paw, compared to control group (Dunnett's test, 1%); for pain threshold-time area under the curve (AUC): up to 24 hours after administration, compared to morphine 3 mg/kg subcutaneous
Procedure: Five-week-old female Crl:CD(SD) SPF rats (Charles River Japan) were injected with MRMT-1 cells (rat breast cancer cells) at 3 × 10^4 cells/20 µL/ body into the medullary cavity at the proximal end of the diaphysis of the right tibia to create a bone metastasis model (day 0). On day 10 after the transplantation of the cancer cells (day 10), the rats were divided into 4 groups of 8 rats each: a control group (with administration of distilled water (trade name: Otsuka Distilled Water) manufactured by Otsuka Pharmaceutical Factory, Inc.), a 10 mg/kg compound A administration group, a 30 mg/kg compound A administration group, and a morphine administration group, as shown in Table 1 below. On day 11 after the transplantation of the cancer cells (day 11), each drug was orally or subcutaneously administered to the rats at a dose of 2 mL/kg. The pain threshold (g) of the plantar surface of the right hind paw was measured using a Dynamic Plantar Aesthesiometer (37450, Ugo Basile) under blinded conditions 1, 3, 6, and 24 hours after the administration. The average value of the pain threshold-time area under the curve (AUC) (g·hr) for 24 hours post-administration was determined for each group.

rats [1] = test: Coordinated motor ability (rotarod); format: in vivo; settings: 10 rotations/min, cutoff 180 seconds, compared to control group
Procedure: Five- to six-week-old male SD-SPF rats (Japan SLC, Inc.) were used in this experiment. The experimental schedule included training using a rotarod (SN445, Shinano Seisakusyo) for 3 days (6 times a day), starting from 3 days before the day of administration. On the day of administration, pre-values (time to stay on the rotarod before the administration of compound A or distilled water) were measured twice, and the rats that spent 180 seconds or more on the rotarod in either of the two measurements were selected. The rats were divided into 3 groups of 6 rats each: a control group (with administration of distilled water (trade name: Otsuka Distilled Water) manufactured by Otsuka Pharmaceutical Factory, Inc.), a 10 mg/kg compound A administration group, and a 30 mg/kg compound A administration group, as shown in Table 3 below. Compound A or distilled water was orally administered to the rats at a dose of 10 mL/kg, and the time to stay on the rotarod was measured 1, 3, 6, and 24 hours after the administration under the test conditions of 10 rotations/min with a cutoff of 180 seconds.

rats [2] = settings: at a dose lower than that required to exert an analgesic effect; cited from earlier work

| Structure (SMILES) | spontaneous locomotor activity (amount of activity) (mice; 10 mg/kg oral) | spontaneous locomotor activity (amount of activity) (mice; 30 mg/kg oral) | cancer pain threshold (cancer pain model rats; 10 mg/kg oral) | pain threshold-time area under the curve (AUC) (cancer pain model rats; 10 mg/kg oral) | cancer pain threshold (cancer pain model rats; 30 mg/kg oral) | pain threshold-time area under the curve (AUC) (cancer pain model rats; 30 mg/kg oral) | coordinated motor ability (time to stay on the rotarod) (rats [1]; 10 mg/kg oral, 1, 3, 6 and 24 hours after administration) | coordinated motor ability (time to stay on the rotarod) (rats [1]; 30 mg/kg oral, 1, 3, 6 and 24 hours after administration) | influences on the central nervous system (coordinated motor ability) (rats [2]) |
| --- | --- | --- | --- | --- | --- | --- | --- | --- | --- |
| NC1CCN(c2cccc(Cl)n2)CC1 [compound A, 1-(6-chloropyridin-2-yl)piperidin-4-amine] | no significant changes in the amount of activity | no significant changes in the amount of activity | significantly increased | no statistically significant difference | significantly increased | no statistically significant difference | no significant changes in the coordinated motor ability | no significant changes in the coordinated motor ability |  |
| CC(C)C[C@H](CN)CC(=O)O [pregabalin, Pregabalin] |  |  |  |  |  |  |  |  | inhibits coordinated motor ability |
